Several values for one entry are separate records, joined by “and”; a condition that tells them apart may be missing. Identical values can stand only once. Numbers after ± are expanded uncertainties.
Assays:
[1] = Capillary rise
[2] = wn = mass fraction of the nth substance listed; conditions: Capillary rise

COC [dimethyl ether]
[1]
Conditions | surface tension liquid-gas [mN/m]
278.16 K | 14.7 ± 0.4
283.21 K | 13.9 ± 0.4
288.17 K | 13.1 ± 0.4
293.15 K | 12.6 ± 0.4
298.1 K | 11.8 ± 0.4
303.13 K | 11 ± 0.4

CCC [propane]
[1]
Conditions | surface tension liquid-gas [mN/m]
278.18 K | 9.5 ± 0.4
283.18 K | 8.9 ± 0.4
288.19 K | 8.3 ± 0.4
293.18 K | 7.7 ± 0.4
298.1 K | 7.1 ± 0.4
303.18 K | 6.4 ± 0.4

COC [dimethyl ether] + CCC
[2]
Conditions | surface tension liquid-gas
243.4 K, w1 = 0.4975 | 16 ± 0.4 mN/m
243.46 K, w1 = 0.6949 | 17.3 ± 0.4 mN/m and 17.2 ± 0.4 mN/m
243.56 K, w1 = 0.3007 | 15.2 ± 0.4 mN/m
248.19 K, w1 = 0.4975 | 15.4 ± 0.4 mN/m
248.27 K, w1 = 0.3007 | 14.5 ± 0.4 mN/m
248.43 K, w1 = 0.6949 | 16.7 ± 0.4 mN/m and 16.6 ± 0.4 mN/m
253.08 K, w1 = 0.3007 | 13.9 ± 0.4 mN/m
253.09 K, w1 = 0.4975 | 14.7 ± 0.4 mN/m
253.23 K, w1 = 0.6949 | 15.9 ± 0.4 mN/m and 15.8 ± 0.4 mN/m
258.34 K, w1 = 0.6949 | 15.2 ± 0.4 mN/m
258.38 K, w1 = 0.4975 | 13.9 ± 0.4 mN/m and 14 ± 0.4 mN/m
258.42 K, w1 = 0.3007 | 13.1 ± 0.4 mN/m
263.11 K, w1 = 0.4975 | 13.4 ± 0.4 mN/m
263.16 K, w1 = 0.6949 | 14.4 ± 0.4 mN/m
263.33 K, w1 = 0.3007 | 12.4 ± 0.4 mN/m
268.05 K, w1 = 0.3007 | 11.8 ± 0.4 mN/m
268.16 K, w1 = 0.4975 | 12.7 ± 0.4 mN/m
268.16 K, w1 = 0.6949 | 13.7 ± 0.4 mN/m
273.14 K, w1 = 0.3007 | 11.1 ± 0.4 mN/m
273.15 K, w1 = 0.6949 | 12.9 ± 0.4 mN/m
273.16 K, w1 = 0.4975 | 11.9 ± 0.4 mN/m and 12 ± 0.4 mN/m
278.13 K, w1 = 0.3007 | 10.5 ± 0.4 mN/m
278.15 K, w1 = 0.4975 | 11.3 ± 0.4 mN/m
278.16 K, w1 = 0.6949 | 12.3 ± 0.4 mN/m
283.13 K, w1 = 0.3007 | 9.8 ± 0.4 mN/m
283.16 K, w1 = 0.4975 | 10.6 ± 0.4 mN/m
283.16 K, w1 = 0.6949 | 11.6 ± 0.4 mN/m
288.12 K, w1 = 0.3007 | 9.1 ± 0.4 mN/m
288.15 K, w1 = 0.4975 | 10 ± 0.4 mN/m
288.15 K, w1 = 0.6949 | 11 ± 0.4 mN/m and 11.1 ± 0.4 mN/m
293.11 K, w1 = 0.3007 | 8.4 ± 0.4 mN/m and 8.5 ± 0.4 mN/m
293.13 K, w1 = 0.4975 | 9.3 ± 0.4 mN/m
293.17 K, w1 = 0.6949 | 10.4 ± 0.4 mN/m
298.08 K, w1 = 0.3007 | 7.8 ± 0.4 mN/m and 7.9 ± 0.4 mN/m
298.09 K, w1 = 0.4975 | 8.7 ± 0.4 mN/m
298.1 K, w1 = 0.6949 | 9.6 ± 0.4 mN/m
303.12 K, w1 = 0.4975 | 8 ± 0.4 mN/m
303.15 K, w1 = 0.3007 | 7 ± 0.4 mN/m and 7.1 ± 0.4 mN/m
303.17 K, w1 = 0.6949 | 9.1 ± 0.4 mN/m
308.08 K, w1 = 0.4975 | 7.4 ± 0.4 mN/m
308.11 K, w1 = 0.3007 | 6.5 ± 0.4 mN/m
308.11 K, w1 = 0.6949 | 8.5 ± 0.4 mN/m and 8.4 ± 0.4 mN/m
313.17 K, w1 = 0.3007 | 5.9 ± 0.4 mN/m
313.17 K, w1 = 0.4975 | 6.6 ± 0.4 mN/m and 6.7 ± 0.4 mN/m
313.18 K, w1 = 0.6949 | 7.7 ± 0.4 mN/m
318.13 K, w1 = 0.3007 | 5.3 ± 0.4 mN/m
318.13 K, w1 = 0.4975 | 6.1 ± 0.4 mN/m
318.16 K, w1 = 0.6949 | 7.1 ± 0.4 mN/m
323.17 K, w1 = 0.3007 | 4.8 ± 0.4 mN/m
323.17 K, w1 = 0.4975 | 5.5 ± 0.4 mN/m
323.17 K, w1 = 0.6949 | 6.5 ± 0.4 mN/m and 6.4 ± 0.4 mN/m
328.12 K, w1 = 0.3007 | 4.2 ± 0.4 mN/m
328.13 K, w1 = 0.4975 | 4.9 ± 0.4 mN/m and 5 ± 0.4 mN/m
328.14 K, w1 = 0.6949 | 5.9 ± 0.4 mN/m and 5.8 ± 0.4 mN/m
333.12 K, w1 = 0.3007 | 3.7 ± 0.4 mN/m
333.13 K, w1 = 0.6949 | 5.3 ± 0.4 mN/m and 5.2 ± 0.4 mN/m
333.14 K, w1 = 0.4975 | 4.3 ± 0.4 mN/m

From the NIST ThermoML archive (doi:10.1016/j.fluid.2010.07.026)
